For orientation: GI50 means the concentration at which growth is held to half of that of the control. Read a low GI50 as more potent growth inhibition.

Holding throughout (assay): NCI60 five-dose screen, panel mean
Holding throughout (format): cell-based

The subject of assay [1] is Non-small-Cell Lung Cancer panel. The note with it: Homo sapiens; mean over Non-small-Cell Lung Cancer panel. The procedure:
(§1) Since all new conjugates (3a–h) had notable antiproliferative activities on several tumor cell lines in the course of the one-dose screening, they were subjected to a five-dose test. […] J. Mol. Sci. 2025, 26, 11063 10 of 10 S.3. NCI60 Screening A detailed description of the NCI screening procedures can also be found on the website of NCI [39], and in our previous work. S.3.1. One-Dose Screen All candidates were examined at first at a single high dose (10 μM) in the full NCI60 cell panel. The value reported for the one-dose test is growth relative to the no-drug control and relative to the time zero number of cells. This made possible the disclosure of both growth inhibition (numbers between 0 and 100) and lethality (numbers less than 0). For example, a value of 100 means no growth inhibition. A value of 20 would mean 80% growth inhibition. A value of 0 means no net growth over the course of the analysis. A value of −20 would mean 20% lethality. A value of −100 means all cells are dead. S.3.2. […] The human tumor cell lines of the cancer screening panel were grown in RPMI 1640 medium containing 5% fetal bovine serum and 2 mM l-glutamine. Characteristically, cells were injected in 96-well microtiter plates in 0.1 mL at plating densities ranging from 5000 to 40,000 cells/well, depending on the doubling time of individual cell lines. After cell inoculation, the microtiter plates were incubated at 37 °C, 5% carbon dioxide, 95% air, and 100% relative humidity for 24 hours before the addition of tested compounds. After 24 hours, 2 plates of each cell line were fixed in situ with Cl3COOH (TCA), to represent a measurement of the cell population for each cell line at the time of drug addition (tz). Tested compounds were solubilized in DMSO at 400-fold the desired final maximum test concentration and stored frozen before application. In the course of the drug addition, an aliquot of frozen concentrate was thawed and diluted to twice the desired final maximum test concentration with a complete medium containing 50 μg mL−1 gentamicin. Additional four, 10-fold or ½ log serial dilutions were produced to furnish a total of five drug concentrations plus control. Aliquots of 0.1 mL of these different drug dilutions were added to the appropriate microtiter wells already containing 0.1 mL of medium, resulting in the required final drug concentrations. Following drug addition, the plates were incubated at 37 °C, 5% carbon dioxide, 95% air, and 100% relative humidity for an additional 48 hours. For adherent cells, the test was finished by the addition of cold Cl3COOH. Cells were fixed in situ by the addition of 50 μL of cold 50% (w/v) Cl3COOH, and incubated at 4 °C for 1 hour. The supernatant was discarded, and the plates were washed with H2O (5×) and dried in air. Sulforhodamine B (SRB) solution (0.1 mL) at 0.4% (w/v) in 1% CH3COOH was added to each well, and plates were incubated at RT for 10 min. After staining, the unbound dye was removed by washing five times with 1% CH3COOH, and the plates were dried in the air. The bound stain is afterward solubilized with a 10 mM trizma base, and the absorbance is read on an automated plate reader at λ = 515 nm. Utilizing the seven absorbance measurements [time zero (tz), control growth (c), and test growth in the presence of the drug at the five concentration levels (ti)], the percentage growth was determined at each of the drug concentration levels. Growth inhibition (%) was calculated as: [(ti − tz)/(c − tz)] × 100, for concentrations where ti ≥ tz (1) [(ti − tz)/(tz)] × 100, for concentrations where ti < tz. (2) Three dose‒response parameters were calculated as follows. GI50 (growth inhibition of 50%) was determined from Equation (3), which is the drug concentration resulting in a 50% reduction in the net protein increase (as measured by SRB staining) in control cells in the course of the drug incubation. [(ti − tz)/(c − tz)] × 100 = 50 (3)

For the next assay, the system named is Melanoma panel. The note with it: Homo sapiens; mean over Melanoma panel. The procedure: as §1
For a further assay, the system named is Breast Cancer panel. The note with it: Homo sapiens; mean over Breast Cancer panel. The procedure:
as §1

The next assay has as its system Colon Cancer panel. The conditions noted are these: Homo sapiens; mean over Colon Cancer panel. The procedure: as §1
A further assay concerns Ovarian Cancer panel. The note with it: Homo sapiens; mean over Ovarian Cancer panel. The procedure: as §1
Another assay deals with Leukemia panel. The note with it: Homo sapiens; mean over Leukemia panel. The procedure: as §1
The test system of another assay is CNS Cancer panel. The conditions noted are these: Homo sapiens; mean over CNS Cancer panel. The procedure:
as §1

The subject of the next assay is Renal Cancer panel. The note with it: Homo sapiens; mean over Renal Cancer panel. The procedure: as §1
The test system of another assay is Prostate Cancer panel. The conditions noted are these: Homo sapiens; mean over Prostate Cancer panel. The procedure: as §1

On to `O=c1cc(-c2ccccc2)oc2cc(OCCCC[P+](c3ccccc3)(c3ccccc3)c3ccccc3)cc(O)c12` [3a], for which the GI50 worked out at 460 nM in assay [1]; 300 nM in the assay with Melanoma panel; 240 nM in the assay on Breast Cancer panel; 620 nM with Colon Cancer panel; 890 nM in the assay with Ovarian Cancer panel; 260 nM in the assay on Leukemia panel. The GI50 stood at 300 nM with CNS Cancer panel, 530 nM in the assay with Renal Cancer panel and 410 nM in the assay with Prostate Cancer panel.

Regarding `Cc1ccc([P+](CCCCOc2cc(O)c3c(=O)cc(-c4ccccc4)oc3c2)(c2ccc(C)cc2)c2ccc(C)cc2)cc1` [3b], the GI50 in assay [1] is 310 nM; with Melanoma panel it was 320 nM; in the assay on Breast Cancer panel, 250 nM; in the assay on Colon Cancer panel it was 390 nM; with Ovarian Cancer panel it was 480 nM; in the assay with Leukemia panel, 220 nM. Further, the concentration for 50% growth inhibition (GI50) in the assay on CNS Cancer panel was found to be 300 nM; in the assay with Renal Cancer panel it was 310 nM; in the assay with Prostate Cancer panel it was 200 nM.

In the case of `COc1ccc([P+](CCCCOc2cc(O)c3c(=O)cc(-c4ccccc4)oc3c2)(c2ccc(OC)cc2)c2ccc(OC)cc2)cc1` [3c], the GI50 came to 590 nM in assay [1]; 350 nM with Melanoma panel; 330 nM with Breast Cancer panel; 640 nM with Colon Cancer panel; 760 nM in the assay with Ovarian Cancer panel; 340 nM in the assay with Leukemia panel. Also, the GI50 in the assay on CNS Cancer panel amounted to 460 nM; in the assay on Renal Cancer panel, 1030 nM; in the assay on Prostate Cancer panel, 370 nM.

As for `O=c1cc(-c2ccccc2)oc2cc(OCCCC[P+](c3ccc(F)cc3)(c3ccc(F)cc3)c3ccc(F)cc3)cc(O)c12` [3d], the GI50 was determined as 1970 nM in [1]; 1740 nM in the assay with Melanoma panel; 1610 nM with Breast Cancer panel; 1690 nM in the assay with Colon Cancer panel; 3900 nM in the assay with Ovarian Cancer panel; 1710 nM in the assay with Leukemia panel. For the same compound, the GI50 stood at 1670 nM with CNS Cancer panel, 2100 nM in the assay on Renal Cancer panel and 1740 nM in the assay with Prostate Cancer panel.

Regarding `O=c1cc(-c2ccccc2)oc2cc(OCCCC[P+](C3CCCCC3)(C3CCCCC3)C3CCCCC3)cc(O)c12` [3e], the GI50 in assay [1] came out at 1070 nM; with Melanoma panel, 550 nM; with Breast Cancer panel, 590 nM; in the assay on Colon Cancer panel it was 940 nM; in the assay on Ovarian Cancer panel, 1950 nM; with Leukemia panel, 420 nM. The GI50 in the assay with CNS Cancer panel is 750 nM; in the assay on Renal Cancer panel it was 1300 nM; with Prostate Cancer panel, 870 nM.

For the compound `COc1c(C)cc([P+](CCCCOc2cc(O)c3c(=O)cc(-c4ccccc4)oc3c2)(c2cc(C)c(OC)c(C)c2)c2cc(C)c(OC)c(C)c2)cc1C` [3f], the GI50 in assay [1] is 290 nM; in the assay on Melanoma panel, 310 nM; with Breast Cancer panel it was 220 nM; in the assay on Colon Cancer panel, 410 nM; with Ovarian Cancer panel, 510 nM; with Leukemia panel it was 120 nM. Moreover, the values for the GI50 with CNS Cancer panel, in the assay with Renal Cancer panel and with Prostate Cancer panel were 280 nM, 320 nM and 310 nM, respectively.

As for `Cc1ccccc1[P+](CCCCOc1cc(O)c2c(=O)cc(-c3ccccc3)oc2c1)(c1ccccc1C)c1ccccc1C` [3g], the GI50 was 450 nM in [1]; 270 nM in the assay with Melanoma panel; 250 nM in the assay on Breast Cancer panel; 580 nM with Colon Cancer panel; 820 nM in the assay with Ovarian Cancer panel; 210 nM in the assay on Leukemia panel. For the same compound, the GI50 with CNS Cancer panel was 330 nM; in the assay with Renal Cancer panel, 580 nM; in the assay on Prostate Cancer panel, 340 nM.

On to `O=c1cc(-c2ccccc2)oc2cc(OCCCC[P+](c3ccccc3)(c3ccccc3)c3ccccn3)cc(O)c12` [3h], for which the GI50 in [1] came out at 1070 nM; in the assay with Melanoma panel it was 520 nM; with Breast Cancer panel, 530 nM; in the assay on Colon Cancer panel it was 1070 nM; in the assay on Ovarian Cancer panel it was 1890 nM; in the assay with Leukemia panel it was 260 nM. Further, the GI50 stood at 770 nM with CNS Cancer panel, 1350 nM in the assay on Renal Cancer panel and 900 nM in the assay with Prostate Cancer panel.

The values above are taken from PMC12652692, “Synthesis and In Vitro Anticancer Evaluation of Novel Phosphonium Derivatives of Chrysin” (International Journal of Molecular Sciences, 2025).
